Measured values as given in patent US20230346769A1, “USE OF SIMPLE ACYCLIC POLYAMINES FOR THE TREATMENT OF DISEASES CAUSED BY PARASITES OF THE GENUS LEISHMANIA” (Universidad De Granada, priority 2020, published 2023).

Key:
[1] = test system: L. braziliensis amastigote forms; experiment: In vitro activity against intracellular (amastigote) forms in macrophages; assay type: cell-based, Leishmania braziliensis; settings: for Selectivity Index (SI) L. brazilensis Amastigote forms: IC50 of macrophages / IC50 of parasite form; for IC50: Leishmania braziliensis, Macrophage, 72 h
Description: (§1) Methodology: Cultures of three Leishmania species, representative of the species causing each of the clinical forms of the disease, were used for these studies. Specifically, strains MCAN/ES/2001/UCM-1 O of L.infantum, isolated and characterised in Madrid from an infected dog; MHOM/BR/1975/M2904 of L.braziliensis, isolated in Brazil in a human case, and LCR-L 133 LRC of L.donovani. isolated in Jerusalem, Israel from a case of kala-azar […] (WHO Technical Reports Series 949. Geneva: WHO. March. The cultures of parasites come from an own collection which was prepared from a biobank project (Biobank and Characterisation Unit of Strains and Species of Trypanosomatids, Responsible for Human, Animal and Plant Pathologies, Cgl-2008-03687-E/Bos.), and are available on request.
(§2) For the study of the in vitro effect on intracellular forms of Leishmania, the experimental model designed by the group of the present inventors was used [Sánchez-Moreno. M. et al. Med. Chem. 2012, 55, 9900-9913; Sánchez-Moreno. M. et al. J. Antimicrob. Chemother. 2012, 67, 387-397]. The macrophages were detached from the culture flask where they were attached by dry blows. To do this, it was incubated in cold for 5 minutes and after that the flask was hit with the palm of the hand until the cells were detached from the flask. Then, they were passed to a 25 ml capacity steriling conical bottom flask (Deltalab) to centrifuge them at 120 g for 5 minutes, removing the supernatant and were counted in Neubauer’s chamber. Cells were suspended in RPMI medium at a concentration of 1×10^4 cells/well, then cultured in 24-well plates into which a 12 mm round slide had previously been placed into each well. For adherence, the cells were left 24 h at 37° C. in 5% CO2. Subsequently, the cells were infected in vitro by placing Leishmania cells at the rate of 10 parasites/macrophage according to [Sánchez-Moreno. M et al. Med. Chem. 2011, 54, 970-979]. […] The products were allowed to act for 72 hours of incubation.
(§3) After that time, the crystals were removed and fixed with methanol on a slide and allowed to dry, after which DPX microscopy mounting medium (Panreac®) was added to it. Once the preparations had been mounted, they were dyed with Giemsa by diluting Azur-Eosin-Methylene Blue solution according to Giemsa DC (Code 251338) with Sorensen buffer (1:10 dilution). The preparations were covered and allowed to colour for 20 minutes, after which they were washed with distilled water and then allowed to drain and dry vertically. Finally, the amastigote forms were counted with the aim of immersion in a total of 200 cells.

[2] = test system: L. donovani amastigote forms; experiment: as above; assay type: cell-based, Leishmania donovani; settings: for Selectivity Index (SI) L. donvovani Amastigote forms: IC50 of macrophages / IC50 of parasite form; for IC50: Leishmania donovani, Macrophage, 72 h
Description: as §1, §2, §3

[3] = test system: L. donovani promastigote forms; experiment: In vitro activity against extracellular (promastigote) forms; assay type: cell-based, Leishmania donovani; settings: for Selectivity Index (SI) L. donvovani Promastigote forms: IC50 of macrophages / IC50 of parasite form; for IC50: Leishmania donovani, 72 h
Description: as §1
(§4) The promastigote forms of the three species studied were cultured in vitro in sterility in single-phase MTL culture medium (Medium Trypanosomes Liquid) made from Hank’s Balanced Salts (Sigma-Aldrich, H6136) enriched with 10% (v/v) of Fetal Bovine Serum (SBF-1) inactivated at 56° C./ 30 minutes. The parasite inoculum to initiate the culture was 5 × 10^4 cells/ml in 5 ml medium in 25 cm^2 Falcon® plastic flasks and kept in an oven at 28° C. The cultures were performed routinely, achieving exponential growth of the flagellates until obtaining the cell mass necessary for the subsequent studies. Both promastigote forms and amastigote forms were used to conduct the assays.
(§5) The promastigote forms of the three Leishmania strains, cultured in the manner described above, were harvested in their exponential growth phase by centrifugation at 400 g for 10 min. The number of parasites was counted in a Neubauer Haemocytometer Counting Chamber and were inoculated in a 24-well plate at a concentration of 5 ×10^4 parasites/well.
(§6) The compounds to be assayed were dissolved in DMSO at a concentration of 0.01% (v/v), concentration at which this solvent is not toxic nor has any effect on the growth of parasites. The compounds were added to the culture medium at final concentrations of 100, 50, 25 and 12.5 µM. […] M. et al. Med. Chem. 2011. 54. 970-979].

[4] = test system: L. braziliensis promastigote forms; experiment: as above; assay type: cell-based, Leishmania braziliensis; settings: for Selectivity Index (SI) L. brazilensis Promastigote forms: IC50 of macrophages / IC50 of parasite form; for IC50: Leishmania braziliensis, 72 h
Description: as §1, §4, §5, §6

[5] = Potentiometric titrations, protonation constants; assay type: physicochemical; settings: 0.15 M NaCl, 298.1 K
Procedure: FEM measurements. Potentiometric titrations were conducted at 298.1 ± 0.1 K using 0.15 M NaCl as the support electrolyte. The experimental procedure (burette, potentiometer, cell, stirrer, microcomputer, etc.) has been fully described elsewhere (E. García-Spain, M.-J. Ballester, F. Lloret, J.M. Moratal, J. Faus and A. Bianchi, J. Chem. Soc. Dalton Trans. 1988, 101-104). The FEM data acquisition was performed with the PASAT software (M. Fontanelli and M. Micheloni, Program for the automatic control of the microburette and the acquisition of the electromotor force readings (PASAT). Minutes of the 1st Spanish-Italian Congress of Thermodynamics of Metal Complexes, Peñíscola, Castellón, Spain, 1990). The reference electrode was an Ag/AgCl electrode in saturated KCI solution. The glass electrode was calibrated as a hydrogen ion concentration probe by titration of previously standardised amounts of HCl with CO2 free NaOH solutions and the equivalent point determined by Gran’s method ((a) G. Gran, Analyst 1952, 77, 661 -671; (b) F.J. Rossotti and H. Rossotti, J. Chem. Educ. 1965, 42, 375-378) providing the standard potential, Eº’, and the ionic product of water (pKw = 13.73 (1)).
Hyperquad software was used to calculate protonation and stability constants (P. Gans, A. Sabatini and A. Vacca, Talanta 1996, 43, 1739-1753). The pH range investigated was 2.5-11.0 and the concentration of the ligands varied from 1×10^-3 to 5×10^-3 M. The different titration curves for each system (at least two) were treated as a single set or as separate curves without significant variations in the values of the stability constants. Finally, the data sets were fused and treated simultaneously to give the final protonation constants (Table 1). For compounds 1, 7 and 9, two protonation constants have been detected in the pH range studied with values ranging from 5.51 to 9.68 logarithmic units. For the remaining compounds, three protonation constants have been measured with values ranging from 10.08 to 2.25 logarithmic units. All compounds have charge +1 at the physiological pH value of 7.4.

[6] = test system: L. infantum promastigote forms; experiment: In vitro activity against extracellular (promastigote) forms; assay type: cell-based, Leishmania infantum; settings: for Selectivity Index (SI) L. infantum Promastigote forms: IC50 of macrophages / IC50 of parasite form; for IC50: Leishmania infantum, 72 h
Description: as §1, §4, §5, §6

SMILES | Selectivity Index (SI) L. brazilensis Amastigote forms [1] | IC50 [1] [µM] | Selectivity Index (SI) L. donvovani Amastigote forms [2] | IC50 [2] [µM] | Selectivity Index (SI) L. donvovani Promastigote forms [3] | IC50 [3] [µM] | Selectivity Index (SI) L. brazilensis Promastigote forms [4] | IC50 [4] [µM] | Log β [5] | Logarithm of the protonation constant H2L+H ⇌ H3L [5] | Logarithm of the protonation constant H+L ⇌ HL [5] | Logarithm of the protonation constant HL+H ⇌ H2L [5] | Selectivity Index (SI) L. infantum Promastigote forms [6] | IC50 [6] [µM]
CN(C)CCNCc1ccnc2ccccc12 [Compound 8, 1-{4-quinolyl)-5-methyl-2,5-diazahexane] | 1 | 16.8 ± 1.1 | 2 | 10.6 ± 0.6 | 2 (2) | 12.8 ± 0.6 | 2 | 13.8 ± 0.7 | 18.99(2) | 3.32(1) | 10.08(1) | 5.59(1) | 2 (2) | 14.1 ± 0.6
CNCCNCc1ccc2ccccc2n1 [Compound 9, 1-{2-quinolyl)-2,5-diazahexane] | 13 | 26.5 ± 0.9 | 11 | 31.9 ± 1.1 | 13 | 27.5 ± 0.4 | 13 | 28 ± 0.3 | 15.10(3) |  | 9.68(2) | 5.41(2) | 23 | 15.6 ± 0.8
CNCCNCc1ccnc2ccccc12 [Compound 10] | 8 | 21.7 ± 2.3 | 6 | 26.8 ± 2.1 | 7 | 24.1 ± 0.6 | 9 | 18.4 ± 1.1 | 17.99(1) | 3.183(8) | 9.512(6) | 5.297(7) | 13 | 12.5 ± 1.1
